Results reported in ChEMBL document CHEMBL1141741, “Coluteol and Colutequinone B, More Antifungal Isoflavonoids from Colutea arborescens” (1998).

Tested on: Saccharomyces cerevisiae
Experiment: Antimicrobial activity against Saccharomyces cerevisiae
Format: functional

| Molecule | MIC |
| --- | --- |
| COC1=C(OC)C(=O)C([C@@H]2COc3cc(OC)ccc3C2)=CC1=O [COLUTEQUINONE A] | < 50 µg/mL |
| COC1=CC(=O)C([C@@H]2COc3cc(OC)ccc3C2)=C(OC)C1=O [COLUTEQUINONE B] | < 50 µg/mL |
| COc1ccc2c(c1)OC[C@@H](c1cc(O)c(OC)c(O)c1OC)C2 [R-COLUTEOL] | < 100 µg/mL |
| NYSTATIN | < 5 µg/mL |
